No end group written: not given here.
Legend:
bacterial strains = test: Antimicrobial activity over the panel of strains; assay type: cell-based; details: range over strains tested
Experimental: Initially, the antimicrobial activity was determined by liquid growth inhibition assays, as previously described by Pedron et al.^62. Briefly, Peptone Broth and Potato Dextrose Broth (Invitrogen) were used for antibacterial and antifungal assays, respectively. Two-fold serial dilutions of peptides (0.09-50 μmol L^−1) and microorganisms (Serratia marcescens ATCC 4112, Enterobacter cloacae β-12, Micrococcus luteus A270, Bacillus megaterium ATCC 10778, Bacillus subtilis ATCC 6633, Candida albicans MDM8, and Candida tropicalis IOC 4560) were incubated at 37° C. for 18 h (for bacteria) or 24 h (for fungi), and microbial growth was assessed by absorbance measurements at 595 nm. Experiments were performed in three biological repeats.
(§1) Method. The minimal inhibitory concentration (MIC) against the ESKAPE pathogens was determined using the broth microdilution method^81, 82 in Luria-Bertani (LB) medium. The MIC value was defined as the lowest concentration of peptide at which no microbial growth was observed. A. baumannii ATCC19606, E. coli ATCC11775, E. coli AIC221, E. coli AIC222, K. pneumoniae ATCC13883, S. aureus ATCC12600 P. aeruginosa PAO1, and P. aeruginosa PA14 were incubated on agar plates, and after 24 h, three isolated colonies were inoculated to 5 mL of Luria-Bertani (LB) broth and maintained at 37° C. overnight with shaking. Peptides were then added to 96-well polystyrene microtiter plates at concentrations ranging from 0 to 128 μmol L^−1, and 5×10^5 CFU mL^−1 of each bacterium was inoculated in each well. The plates were incubated at 37° C. for 24 h. Bacterial growth was measured using a microplate reader at 610 nm. Three independent replicates were performed.

P. aeruginosa = test: MIC against P. aeruginosa; assay type: cell-based; details: strain not given
Experimental: as §1

ILGAILNVLKSLG-NH2 [PV, Ile-Leu-Gly-Ala-Ile-Leu-Asn-Val-Leu-Lys-Ser-Leu-Gly]
MIC range of the peptide over the strains (bacterial strains): 3.1 to 64 µM | MIC against P. aeruginosa (P. aeruginosa): 128 µM
